Results taken from ChEMBL document CHEMBL1201862, “PubChem BioAssay data set” (2004).
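A five-concentration, 48-hour dose response in 96-well plates underlies each endpoint, interpolated linearly between surrounding concentrations. Abbreviation: GI50, concentration required for 50% inhibition of growth.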 The source made the active and inactive calls. Rule as the data show it: active = GI50 up to about 1.1 µM and inactive = higher.

How the values were obtained:
Assay in all cases: inhibition of tumour cell growth, NCI panel, 48 h
[1] = system: SK-MEL-28
[2] = system: SNB-19
[3] = system: SF-295
[4] = system: UACC-62
[5] = system: IGROV-1
[6] = system: UO-31
[7] = system: SF-268
[8] = system: MDA-MB-435
[9] = system: KM12
[10] = system: MDA-MB-231
[11] = system: U-251
[12] = system: HCT-116
[13] = system: SF-539
[14] = system: MCF7
[15] = system: TK-10
[16] = system: OVCAR-8
[17] = system: LOX IMVI
[18] = system: A498
[19] = system: A549
[20] = system: Malme-3M
[21] = system: SNB-75
[22] = system: SN12C
[23] = system: OVCAR-3
[24] = system: EKVX
[25] = system: DU-145
[26] = system: UACC-257
[27] = system: SK-MEL-5
[28] = system: PC-3
[29] = system: SR
[30] = system: RXF 393
[31] = system: ACHN
[32] = system: MOLT-4
[33] = system: HT-29
[34] = system: T47D
[35] = system: HOP-92
[36] = system: M14
[37] = system: OVCAR-4
[38] = system: OVCAR-5
[39] = system: 786-0
[40] = system: HOP-62
[41] = system: NCI-H226
[42] = system: HL-60
[43] = system: NCI-H522
[44] = system: COLO 205
[45] = system: HCT-15
[46] = system: MDA-N
[47] = system: NCI-H460
[48] = system: NCI/ADR-RES
[49] = system: K562
[50] = system: RPMI-8226
[51] = system: SW-620
[52] = system: CAKI-1
[53] = system: NCI-H23
[54] = system: CCRF-CEM
[55] = system: SK-MEL-2
[56] = system: Hs-578T
[57] = system: SK-OV-3

Structure (SMILES): CC(O)C(CO)NC(=O)C1CSSCC(NC(=O)C(N)Cc2ccccc2)C(=O)NC(Cc2ccccc2)C(=O)NC(Cc2c[nH]c3ccccc23)C(=O)NC(CCCCN)C(=O)NC(C(C)O)C(=O)N1 (configuration not stated)
- GI50 [1]: > 100 µM (inactive)
- GI50 [2]: > 100 µM (inactive)
- GI50 [3]: > 100 µM (inactive)
- GI50 [4]: > 100 µM (inactive)
- GI50 [5]: > 100 µM (inactive)
- GI50 [6]: > 100 µM (inactive)
- GI50 [7]: > 100 µM (inactive)
- GI50 [8]: > 100 µM (inactive)
- GI50 [9]: > 100 µM (inactive)
- GI50 [10]: > 100 µM (inactive)
- GI50 [11]: > 100 µM (inactive)
- GI50 [12]: > 100 µM (inactive)
- GI50 [13]: > 100 µM (inactive)
- GI50 [14]: > 100 µM (inactive)
- GI50 [15]: > 100 µM (inactive)
- GI50 [16]: > 100 µM (inactive)
- GI50 [17]: > 100 µM (inactive)
- GI50 [18]: > 100 µM (inactive)
- GI50 [19]: > 100 µM (inactive)
- GI50 [20]: > 100 µM (inactive)
- GI50 [21]: > 100 µM (inactive)
- GI50 [22]: > 100 µM (inactive)
- GI50 [23]: > 100 µM (inactive)
- GI50 [24]: > 100 µM (inactive)
- GI50 [25]: > 100 µM (inactive)
- GI50 [26]: > 100 µM (inactive)
- GI50 [27]: > 100 µM (inactive)
- GI50 [28]: > 100 µM (inactive)
- GI50 [29]: > 100 µM (inactive)
- GI50 [30]: > 100 µM (inactive)
- GI50 [31]: > 100 µM (inactive)
- GI50 [32]: > 100 µM (inactive)
- GI50 [33]: > 100 µM (inactive)
- GI50 [34]: > 100 µM (inactive)
- GI50 [35]: > 100 µM (inactive)
- GI50 [36]: > 100 µM (inactive)
- GI50 [37]: > 100 µM (inactive)
- GI50 [38]: > 100 µM (inactive)
- GI50 [39]: > 100 µM (inactive)
- GI50 [40]: > 100 µM (inactive)
- GI50 [41]: > 100 µM (inactive)
- GI50 [42]: > 100 µM (inactive)
- GI50 [43]: > 100 µM (inactive)
- GI50 [44]: > 100 µM (inactive)
- GI50 [45]: > 100 µM
- GI50 [46]: > 100 µM (inactive)
- GI50 [47]: > 100 µM (inactive)
- GI50 [48]: > 100 µM (inactive)
- GI50 [49]: > 100 µM (inactive)
- GI50 [50]: > 100 µM (inactive)
- GI50 [51]: > 100 µM (inactive)
- GI50 [52]: > 100 µM (inactive)
- GI50 [53]: > 100 µM (inactive)
- GI50 [54]: > 100 µM (inactive)

Structure (SMILES): O=C(O)C1C2C=CC(O2)C1C(=O)NCc1ccncc1 (configuration not stated)
- GI50 [1]: > 100 µM (inactive)
- GI50 [2]: > 100 µM (inactive)
- GI50 [3]: > 100 µM (inactive)
- GI50 [4]: > 100 µM (inactive)
- GI50 [5]: > 100 µM (inactive)
- GI50 [6]: > 100 µM (inactive)
- GI50 [7]: > 100 µM (inactive)
- GI50 [8]: > 100 µM (inactive)
- GI50 [9]: > 100 µM (inactive)
- GI50 [10]: > 100 µM (inactive)
- GI50 [11]: > 100 µM (inactive)
- GI50 [12]: > 100 µM (inactive)
- GI50 [13]: > 100 µM (inactive)
- GI50 [55]: > 100 µM (inactive)
- GI50 [14]: > 100 µM (inactive)
- GI50 [15]: > 100 µM (inactive)
- GI50 [16]: > 100 µM (inactive)
- GI50 [17]: > 100 µM (inactive)
- GI50 [18]: > 100 µM (inactive)
- GI50 [19]: > 100 µM (inactive)
- GI50 [20]: > 100 µM (inactive)
- GI50 [21]: > 100 µM (inactive)
- GI50 [22]: > 100 µM (inactive)
- GI50 [23]: 33.7 µM (inactive)
- GI50 [24]: > 100 µM (inactive)
- GI50 [25]: > 100 µM (inactive)
- GI50 [26]: > 100 µM (inactive)
- GI50 [27]: > 100 µM (inactive)
- GI50 [28]: > 100 µM (inactive)
- GI50 [29]: > 100 µM (inactive)
- GI50 [30]: > 100 µM (inactive)
- GI50 [31]: > 100 µM (inactive)
- GI50 [33]: > 100 µM (inactive)
- GI50 [34]: > 100 µM (inactive)
- GI50 [35]: > 100 µM (inactive)
- GI50 [36]: > 100 µM (inactive)
- GI50 [37]: > 100 µM (inactive)
- GI50 [38]: > 100 µM (inactive)
- GI50 [39]: > 100 µM (inactive)
- GI50 [40]: > 100 µM (inactive)
- GI50 [41]: > 100 µM (inactive)
- GI50 [56]: > 100 µM (inactive)
- GI50 [42]: > 100 µM (inactive)
- GI50 [43]: > 100 µM (inactive)
- GI50 [44]: > 100 µM (inactive)
- GI50 [46]: > 100 µM (inactive)
- GI50 [47]: > 100 µM (inactive)
- GI50 [49]: > 100 µM (inactive)
- GI50 [50]: > 100 µM (inactive)
- GI50 [51]: > 100 µM (inactive)
- GI50 [52]: > 100 µM (inactive)
- GI50 [57]: > 100 µM (inactive)
- GI50 [54]: > 100 µM (inactive)
